US11166460B2, “α-amino acrylate microbicide, and preparation method therefor and uses thereof” (priority 2017, dated 2021)

Assays:
Rhizoctonia cerealis = assay: Fungicidal activity, fungi growth rate method, RC; type: cell-based; details: Ceratobasidium cereale; 50 μg/mL; read-out: Fungicidal activity, inhibition, RC
[1] = tested on: Phytophthora infestans (Mont) de Bary; assay: microbe, parasite or virus in culture; type: cell-based; details: Phytophthora infestans, read-out: Fungicidal activity, inhibition, PI
Sclerotinia sclerotiorum = assay: microbe, parasite or virus in culture; type: cell-based; details: Sclerotinia sclerotiorum; 50 μg/mL; read-out: Fungicidal activity, inhibition, SS
[2] = tested on: tobacco mosaic virus (TMV); assay: Anti-TMV protective activity (protection mode), live friction inoculation on tobacco seedlings; type: in vivo; details: Tobacco mosaic virus, read-out: Anti-TMV activity, Protection effect (inhibition)
Botrytis cinerea = assay: Fungicidal activity, fungi growth rate method, BC; type: cell-based; details: Botrytis cinerea; 50 μg/mL; read-out: Fungicidal activity, inhibition, BC
Alternaria solani = assay: Fungicidal activity, fungi growth rate method, AS; type: cell-based; details: Alternaria solani; 50 μg/mL; read-out: Fungicidal activity, inhibition, AS
[3] = tested on: tobacco mosaic virus (TMV); assay: Anti-TMV inactivation activity (inactivation mode), compound mixed with TMV before inoculation of tobacco leaves; type: in vivo; details: Tobacco mosaic virus, read-out: Anti-TMV activity, Inactivation effect (inhibition)
[4] = tested on: tobacco mosaic virus (TMV); assay: Anti-TMV inducing activity (induction mode), tobacco seedlings; type: in vivo; details: Tobacco mosaic virus, read-out: Anti-TMV activity, Induction effect (inhibition), 100 μg/mL, tobacco seedlings
Pellicularia sasakii = assay: Fungicidal activity, fungi growth rate method, PS; type: cell-based; details: 50 μg/mL; read-out: Fungicidal activity, inhibition, PS
wheat Gibberella zeae = assay: microbe, parasite or virus in culture; type: cell-based; details: Fusarium graminearum, read-out: Fungicidal activity, inhibition, GZ
[5] = tested on: tobacco mosaic virus (TMV); assay: Anti-TMV curative activity (treatment mode), live friction inoculation on tobacco seedlings; type: in vivo; details: Tobacco mosaic virus, read-out: Anti-TMV activity, Curative effect (inhibition), 100 μg/mL, tobacco seedlings, checked on seventh day
Cercospora arachidicola = assay: Fungicidal activity, fungi growth rate method, CA; type: cell-based; details: Mycosphaerella arachidis; 50 μg/mL; read-out: Fungicidal activity, inhibition, CA
Physalospora piricola = assay: Fungicidal activity, fungi growth rate method, PP; type: cell-based; details: 50 μg/mL; read-out: Fungicidal activity, inhibition, PP

SMILES | inhibition at 50 µg/mL (Rhizoctonia cerealis) [%] | inhibition at 50 µg/mL [1] [%] | inhibition at 50 µg/mL (Sclerotinia sclerotiorum) [%] | inhibition at 100 µg/mL [2] [%] | melting point [°C] | inhibition at 50 µg/mL (Botrytis cinerea) [%] | inhibition at 50 µg/mL (Alternaria solani) [%] | inhibition at 100 µg/mL [3] [%] | inhibition at 100 µg/mL [4] [%] | inhibition at 50 µg/mL (Pellicularia sasakii) [%] | inhibition at 50 µg/mL (wheat Gibberella zeae) [%] | inhibition at 100 µg/mL [5] [%] | inhibition at 50 µg/mL (Cercospora arachidicola) [%] | inhibition at 50 µg/mL (Physalospora piricola) [%]
O=C(O)/C(=C/c1ccccc1)NC(=O)C1CC1 [Compound 67, (Z)-2-cyclopropanoylamino-3-phenylpropenoic acid] | 10 | 13 | 67 | 78 | 193 to 195 | 19 | 20 | 57 | 34 | 6 | 23 | 52 | 15 | 3
O=C(NCc1cccc(Br)c1)/C(=C/c1ccccc1)NC(=O)c1ccccc1 [Compound 51, N-[(1Z)-2-phenyl-1-[[(3-bromophenylmethyl)amino]carbonyl]ethenyl]benzamide] | 28 | 21 | 50 | 11 | 180 to 182 | 24 | 25 | 69 | 14 | 14 | 43 | 12 | 15 | 18
